Assay results reported in paper PMC8550792, “Evolution of kinase polypharmacology across HSP90 drug discovery” (Cell Chemical Biology, 2021).

Assays:
Assay in all cases: biochemical
Format in all cases: biochemical
382 unique human kinases [1] = target: T1, 382 unique human kinases (Homo sapiens, UniProt Q86UX6); conditions: STK32C/YANK3, 10 uM; for remaining activity at 10 µM: read-out: % Enzyme Activity (relative to DMSO controls)
T1 construct: purchased Reaction Biology (HotSpot contract assay)

382 unique human kinases [2] = target: T2, 382 unique human kinases (Homo sapiens, UniProt O15264); conditions: P38d/MAPK13, 10 uM; for remaining activity at 10 µM: read-out: % Enzyme Activity (relative to DMSO controls)
T2 construct: purchased Reaction Biology (HotSpot contract assay)
T2 sequence (O15264 1-365): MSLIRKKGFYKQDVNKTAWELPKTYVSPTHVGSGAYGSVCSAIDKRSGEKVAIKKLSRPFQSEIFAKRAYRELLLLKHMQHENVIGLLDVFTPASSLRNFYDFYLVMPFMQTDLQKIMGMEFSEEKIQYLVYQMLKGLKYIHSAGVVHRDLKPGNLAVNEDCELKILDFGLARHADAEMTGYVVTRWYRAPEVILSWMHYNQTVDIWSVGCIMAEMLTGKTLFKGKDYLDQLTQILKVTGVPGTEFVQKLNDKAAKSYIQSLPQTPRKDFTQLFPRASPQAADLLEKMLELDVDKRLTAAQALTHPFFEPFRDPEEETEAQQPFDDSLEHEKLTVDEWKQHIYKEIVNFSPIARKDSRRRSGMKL

382 unique human kinases [3] = target: T3, 382 unique human kinases (Homo sapiens, UniProt P49137); conditions: MAPKAPK2, compound at 10 uM, duplicate values; for remaining activity at 10 µM: read-out: % Enzyme Activity (relative to DMSO controls)
T3 construct: purchased Reaction Biology (HotSpot contract assay)

382 unique human kinases [4] = target: T4, 382 unique human kinases (Homo sapiens, UniProt P29322); conditions: kinase EPHA8, compound 10 uM; for remaining activity at 10 µM: read-out: % Enzyme Activity (relative to DMSO controls)
T4 construct: purchased Reaction Biology (HotSpot contract assay)
T4 sequence (P29322 28-1005): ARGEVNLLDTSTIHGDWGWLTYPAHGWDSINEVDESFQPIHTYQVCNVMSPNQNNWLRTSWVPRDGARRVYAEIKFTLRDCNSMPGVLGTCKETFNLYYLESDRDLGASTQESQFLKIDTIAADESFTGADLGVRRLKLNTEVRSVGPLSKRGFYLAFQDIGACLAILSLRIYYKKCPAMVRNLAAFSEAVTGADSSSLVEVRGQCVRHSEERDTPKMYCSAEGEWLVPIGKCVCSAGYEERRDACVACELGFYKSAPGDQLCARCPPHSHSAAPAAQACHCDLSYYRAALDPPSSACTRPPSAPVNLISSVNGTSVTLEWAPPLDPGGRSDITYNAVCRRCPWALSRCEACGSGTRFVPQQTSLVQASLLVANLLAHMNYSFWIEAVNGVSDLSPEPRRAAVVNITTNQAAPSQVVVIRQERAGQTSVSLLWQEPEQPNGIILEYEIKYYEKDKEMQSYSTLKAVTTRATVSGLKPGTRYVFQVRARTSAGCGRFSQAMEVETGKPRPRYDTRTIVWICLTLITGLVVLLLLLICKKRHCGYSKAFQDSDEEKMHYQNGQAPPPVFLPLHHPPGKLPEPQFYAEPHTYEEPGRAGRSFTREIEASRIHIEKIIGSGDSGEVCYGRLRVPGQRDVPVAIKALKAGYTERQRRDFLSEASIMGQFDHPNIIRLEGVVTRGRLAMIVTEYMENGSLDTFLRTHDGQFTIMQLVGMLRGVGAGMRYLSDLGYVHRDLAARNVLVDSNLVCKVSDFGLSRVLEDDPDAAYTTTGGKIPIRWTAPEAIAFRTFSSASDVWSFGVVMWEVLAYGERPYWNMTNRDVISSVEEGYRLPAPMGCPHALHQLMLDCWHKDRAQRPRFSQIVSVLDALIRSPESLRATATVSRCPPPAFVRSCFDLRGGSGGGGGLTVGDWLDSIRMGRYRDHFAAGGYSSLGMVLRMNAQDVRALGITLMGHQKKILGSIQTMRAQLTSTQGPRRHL

382 unique human kinases [5] = target: T5, 382 unique human kinases (Homo sapiens, UniProt Q9BQI3); conditions: EIF2AK1, compound at 10 uM, duplicate values; for remaining activity at 10 µM: read-out: % Enzyme Activity (relative to DMSO controls)
T5 construct: purchased Reaction Biology (HotSpot contract assay)

382 unique human kinases [6] = target: T6, 382 unique human kinases (Homo sapiens, UniProt Q15119); conditions: PDK2/PDHK2, [ATP] 15 µM
T6 construct: purchased Reaction Biology (HotSpot contract assay)

382 unique human kinases [7] = target: T7, 382 unique human kinases (Homo sapiens, UniProt Q8IYT8); conditions: ULK2, 10 uM; for remaining activity at 10 µM: read-out: % Enzyme Activity (relative to DMSO controls)
T7 construct: purchased Reaction Biology (HotSpot contract assay)
T7 sequence (Q8IYT8 1-1036): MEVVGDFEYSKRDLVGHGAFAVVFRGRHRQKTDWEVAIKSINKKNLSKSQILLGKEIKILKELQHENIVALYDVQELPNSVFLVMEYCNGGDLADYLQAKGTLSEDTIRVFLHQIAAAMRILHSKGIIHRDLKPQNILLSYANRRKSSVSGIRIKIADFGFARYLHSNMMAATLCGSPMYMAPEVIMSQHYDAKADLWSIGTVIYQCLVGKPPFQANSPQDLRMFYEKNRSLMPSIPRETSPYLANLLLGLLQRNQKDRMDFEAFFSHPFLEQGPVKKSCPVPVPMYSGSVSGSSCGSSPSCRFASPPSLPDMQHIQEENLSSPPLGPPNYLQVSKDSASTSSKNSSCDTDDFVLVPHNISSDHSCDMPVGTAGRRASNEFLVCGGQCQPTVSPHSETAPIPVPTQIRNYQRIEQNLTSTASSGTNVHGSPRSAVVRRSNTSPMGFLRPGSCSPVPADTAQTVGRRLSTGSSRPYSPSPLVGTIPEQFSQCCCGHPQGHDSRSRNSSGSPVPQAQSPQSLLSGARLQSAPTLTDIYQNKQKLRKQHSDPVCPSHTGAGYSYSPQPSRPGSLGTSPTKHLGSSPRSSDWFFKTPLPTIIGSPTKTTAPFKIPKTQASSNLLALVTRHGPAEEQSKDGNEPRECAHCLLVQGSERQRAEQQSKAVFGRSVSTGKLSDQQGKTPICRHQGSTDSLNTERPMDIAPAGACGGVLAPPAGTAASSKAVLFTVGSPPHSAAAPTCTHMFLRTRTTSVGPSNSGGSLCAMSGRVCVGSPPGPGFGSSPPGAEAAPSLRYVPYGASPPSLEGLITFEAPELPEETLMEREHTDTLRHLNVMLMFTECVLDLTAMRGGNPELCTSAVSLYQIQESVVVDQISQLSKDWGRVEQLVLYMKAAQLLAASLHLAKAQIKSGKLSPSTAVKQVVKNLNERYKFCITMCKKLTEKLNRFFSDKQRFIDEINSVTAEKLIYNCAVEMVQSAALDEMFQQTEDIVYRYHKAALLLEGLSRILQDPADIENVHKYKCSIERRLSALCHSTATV

382 unique human kinases [8] = target: T8, 382 unique human kinases (Homo sapiens, UniProt P78527); conditions: DNA-PK, 10 uM; for remaining activity at 10 µM: read-out: % Enzyme Activity (relative to DMSO controls)
T8 construct: purchased Reaction Biology (HotSpot contract assay)

382 unique human kinases [9] = target: T9, 382 unique human kinases (Homo sapiens, UniProt P51812, L608F); conditions: RSK2 (L608F), [ATP] 10 µM, compound 10 uM; for remaining activity at 10 µM: read-out: % Enzyme Activity (relative to DMSO controls)
T9 construct: purchased Reaction Biology (HotSpot contract assay)

[10] = compound 10 uM, read-out: % Enzyme Activity (relative to DMSO controls)

T1 sequence (Q86UX6 whole entry): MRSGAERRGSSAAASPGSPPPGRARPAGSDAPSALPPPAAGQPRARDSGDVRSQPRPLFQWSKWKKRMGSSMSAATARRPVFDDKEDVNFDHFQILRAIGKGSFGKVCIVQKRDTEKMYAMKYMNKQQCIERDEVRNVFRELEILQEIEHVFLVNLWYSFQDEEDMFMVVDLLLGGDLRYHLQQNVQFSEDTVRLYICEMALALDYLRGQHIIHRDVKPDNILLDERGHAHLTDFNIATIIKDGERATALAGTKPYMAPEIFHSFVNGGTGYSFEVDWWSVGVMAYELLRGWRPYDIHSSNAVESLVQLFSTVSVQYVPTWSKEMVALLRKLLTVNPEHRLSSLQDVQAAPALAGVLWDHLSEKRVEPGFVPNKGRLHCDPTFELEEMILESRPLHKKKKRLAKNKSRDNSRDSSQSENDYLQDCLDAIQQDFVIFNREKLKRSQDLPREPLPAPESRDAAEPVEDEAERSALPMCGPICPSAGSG
T5 sequence (Q9BQI3 whole entry): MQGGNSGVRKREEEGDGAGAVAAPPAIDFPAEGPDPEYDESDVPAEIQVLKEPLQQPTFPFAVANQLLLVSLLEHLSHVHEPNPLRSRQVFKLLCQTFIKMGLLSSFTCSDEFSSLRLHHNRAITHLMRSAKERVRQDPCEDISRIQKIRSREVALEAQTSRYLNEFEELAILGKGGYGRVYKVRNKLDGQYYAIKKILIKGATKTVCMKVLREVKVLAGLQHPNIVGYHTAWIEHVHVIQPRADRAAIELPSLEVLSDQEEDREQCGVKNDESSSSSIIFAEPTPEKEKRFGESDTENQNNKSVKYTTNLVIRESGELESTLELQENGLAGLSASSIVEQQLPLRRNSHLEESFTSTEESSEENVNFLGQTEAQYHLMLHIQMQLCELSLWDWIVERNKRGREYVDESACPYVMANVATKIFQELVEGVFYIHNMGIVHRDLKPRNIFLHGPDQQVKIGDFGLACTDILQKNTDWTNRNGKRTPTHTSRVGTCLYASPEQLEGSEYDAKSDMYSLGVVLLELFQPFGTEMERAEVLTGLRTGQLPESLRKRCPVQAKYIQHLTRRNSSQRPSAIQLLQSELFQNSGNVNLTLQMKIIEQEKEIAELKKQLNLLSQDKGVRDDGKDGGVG
T9 sequence (P51812 whole entry L608F): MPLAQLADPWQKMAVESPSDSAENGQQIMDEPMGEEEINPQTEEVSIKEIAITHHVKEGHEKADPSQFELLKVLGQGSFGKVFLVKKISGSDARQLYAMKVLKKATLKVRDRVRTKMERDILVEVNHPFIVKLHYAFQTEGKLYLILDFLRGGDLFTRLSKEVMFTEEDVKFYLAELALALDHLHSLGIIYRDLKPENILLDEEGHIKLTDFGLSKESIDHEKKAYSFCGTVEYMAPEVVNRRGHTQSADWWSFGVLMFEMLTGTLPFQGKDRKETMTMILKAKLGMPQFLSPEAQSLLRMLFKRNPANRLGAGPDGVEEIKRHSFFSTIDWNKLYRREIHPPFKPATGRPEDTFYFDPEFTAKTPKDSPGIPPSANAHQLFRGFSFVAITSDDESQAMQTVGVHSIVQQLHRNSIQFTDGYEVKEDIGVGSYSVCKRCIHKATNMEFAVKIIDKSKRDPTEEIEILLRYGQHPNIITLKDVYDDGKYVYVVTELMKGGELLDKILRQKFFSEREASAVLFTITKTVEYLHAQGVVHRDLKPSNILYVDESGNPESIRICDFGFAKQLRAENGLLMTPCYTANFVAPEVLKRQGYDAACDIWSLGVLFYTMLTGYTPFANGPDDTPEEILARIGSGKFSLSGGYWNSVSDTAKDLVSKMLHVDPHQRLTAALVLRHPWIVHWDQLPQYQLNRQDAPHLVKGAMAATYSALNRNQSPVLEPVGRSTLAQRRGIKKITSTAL
T3 sequence (P49137 whole entry): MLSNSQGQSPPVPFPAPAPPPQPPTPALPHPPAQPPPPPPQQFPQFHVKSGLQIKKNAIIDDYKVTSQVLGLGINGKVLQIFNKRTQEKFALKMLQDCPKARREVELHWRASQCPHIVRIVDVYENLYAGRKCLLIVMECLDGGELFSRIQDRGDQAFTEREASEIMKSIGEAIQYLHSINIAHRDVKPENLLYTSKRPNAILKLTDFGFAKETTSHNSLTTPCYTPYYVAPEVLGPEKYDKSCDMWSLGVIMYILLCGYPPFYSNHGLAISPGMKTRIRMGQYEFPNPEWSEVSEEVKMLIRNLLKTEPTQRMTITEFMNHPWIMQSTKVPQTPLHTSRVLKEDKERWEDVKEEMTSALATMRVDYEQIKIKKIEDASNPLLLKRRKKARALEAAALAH

Row | Structure (SMILES) | remaining activity at 10 µM (382 unique human kinases [1]) [%] | remaining activity at 10 µM (382 unique human kinases [2]) [%] | remaining activity at 10 µM (382 unique human kinases [3]) [%] | remaining activity at 10 µM (382 unique human kinases [4]) [%] | remaining activity at 10 µM (382 unique human kinases [5]) [%] | remaining activity at 1 µM (382 unique human kinases [6]; compound 1 uM, read-out: % Enzyme Activity (relative to DMSO controls)) [%] | remaining activity at 10 µM (382 unique human kinases [6]; [10]) [%] | remaining activity at 10 µM (382 unique human kinases [7]) [%] | remaining activity at 10 µM (382 unique human kinases [8]) [%] | remaining activity at 10 µM (382 unique human kinases [9]) [%] | % Enzyme Activity (relative to DMSO controls) (382 unique human kinases [6]; compound 10 uM) [%] | % Enzyme Activity (relative to DMSO controls) (382 unique human kinases [7]) [%] | % Enzyme Activity (relative to DMSO controls) (382 unique human kinases [8]) [%] | % Enzyme Activity (relative to DMSO controls) (382 unique human kinases [9]) [%] | % Enzyme Activity (relative to DMSO controls) (382 unique human kinases [1]) [%] | % Enzyme Activity (relative to DMSO controls) (382 unique human kinases [2]) [%] | % Enzyme Activity (relative to DMSO controls) (382 unique human kinases [3]) [%] | % Enzyme Activity (relative to DMSO controls) (382 unique human kinases [4]) [%] | % Enzyme Activity (relative to DMSO controls) (382 unique human kinases [5]) [%]
1 | CC(C)c1cc(-c2n[nH]c(=O)n2-c2ccc3c(ccn3C)c2)c(O)cc1O [Ganetespib (STA9090)] | 109 | 83.5 | 102 | 95.2 | 110 | – | – | – | – | – | – | – | – | – | – | – | – | – | –
2 | CC(C)c1cc(-c2n[nH]c(=O)n2-c2ccc3c(ccn3C)c2)c(O)cc1O [Ganetespib] | – | – | – | – | – | 41.9 | 11.2 | 107 | 97.8 | 52.5 | – | – | – | – | – | – | – | – | –
3 | CCNC(=O)c1noc(-c2cc(C(C)C)c(O)cc2O)c1-c1ccc(CN2CCOCC2)cc1 [Luminespib] | – | – | – | – | – | – | 22.4 | 107 | 91.6 | 108 | 20.58 | 104.48 | 91.21 | 105.75 | – | – | – | – | –
4 | CCNC(=O)c1noc(-c2cc(C(C)C)c(O)cc2O)c1-c1ccc(CN2CCOCC2)cc1 [Luminespib (AUY-922)] | 69.9 | 86.8 | 106 | 94.1 | 127 | – | – | – | – | – | – | – | – | – | 69.42 | 86.84 | 105.08 | 92.42 | 122.69
